What was measured:
Type in all cases: in vivo
[1] = test system: Surinam grass (Brachiaria decumbens); test: Test B postemergence
Procedure, shortened: (§1)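 Visual injury scores, 0 = no effect to 100 = complete control, assigned against controls after 13 to 15 days in the greenhouse. Compounds formulated in non-phytotoxic solvent plus surfactant and applied to soil after planting (pre) or onto foliage of 1- to 4-leaf plants (post).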

[2] = test system: barnyardgrass (Echinochloa crus-galli); test: Test B postemergence
Procedure, shortened: as §1

[3] = test system: blackgrass (Alopecurus myosuroides); test: Test B postemergence; conditions: 13 to 15 days
Procedure, shortened: as §1

corn (Zea mays) [4] = test: Test B postemergence
Procedure, shortened: as §1

[5] = test system: crabgrass (Digitaria sanguinalis); test: Test B postemergence; conditions: 13 to 15 days
Procedure, shortened: as §1

[6] = test system: giant foxtail (Setaria faberii); test: Test B postemergence
Procedure, shortened: as §1

[7] = test system: lambsquarters (Chenopodium album); test: Test B postemergence
Procedure, shortened: as §1

[8] = test system: morning glory (Ipomoea hederacea); test: Test B postemergence
Procedure, shortened: as §1

[9] = test system: pigweed (Amaranthus retroflexus); test: Test B postemergence
Procedure, shortened: as §1

[10] = test system: velvetleaf (Abutilon theophrasti); test: Test B postemergence
Procedure, shortened: as §1

[11] = test system: wheat (Triticum aestivum); test: Test B postemergence
Procedure, shortened: as §1

wild oat (Avena fatua) = test: Test B postemergence
Procedure, shortened: as §1

[12] = test system: Surinam grass (Brachiaria decumbens); test: Test B preemergence
Procedure, shortened: as §1

[13] = test system: barnyardgrass (Echinochloa crus-galli); test: Test B preemergence
Procedure, shortened: as §1

[14] = test system: cocklebur (Xanthium strumarium); test: Test B preemergence
Procedure, shortened: as §1

corn (Zea mays) [15] = test: Test B preemergence
Procedure, shortened: as §1

[16] = test system: crabgrass (Digitaria sanguinalis); test: Test B preemergence
Procedure, shortened: as §1

[17] = test system: giant foxtail (Setaria faberii); test: Test B preemergence
Procedure, shortened: as §1

[18] = test system: lambsquarters (Chenopodium album); test: Test B preemergence
Procedure, shortened: as §1

[19] = test system: morning glory (Ipomoea hederacea); test: Test B preemergence
Procedure, shortened: as §1

[20] = test system: pigweed (Amaranthus retroflexus); test: Test B preemergence
Procedure, shortened: as §1

rice (Oryza saliva) = test: Test B preemergence
Procedure, shortened: as §1

[21] = test system: velvetleaf (Abutilon theophrasti); test: Test B preemergence
Procedure, shortened: as §1

[22] = test system: smallflower flatsedge (Cyperus difformis); test: Test C flooded paddy test; conditions: for Flatsedge plant response rating: Flooded Paddy, scale 0 to 100, 0 no effect, 100 complete control; for Plant response rating, Flatsedge: flooded paddy test, scale 0 to 100 (0 no effect, 100 complete control)
Procedure, shortened: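 Visually assessed vs untreated controls 12–14 d post-treatment (greenhouse). Flooded paddy plants were at the 2-leaf stage; scale 0 = no effect, 100 = complete control.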

Nightshade = test: Test C preemergence; conditions: Rate 500 g/ha, visual evaluation after 12 to 14 days
Sunflower = test: Test C preemergence; conditions: Rate 500 g/ha, visual evaluation after 12 to 14 days
[23] = test system: cocklebur (Xanthium strumarium); test: Test B postemergence
Procedure, shortened: as §1

[24] = Rate 125 g/ha, scale 0 (no effect) to 100 (complete control), 13 to 15 days
[25] = Rate 500 g/ha, scale 0 to 100, 0 is no effect, 100 is complete control, 13 to 15 days
[26] = Rate 125 g/ha, scale 0 (no effect) to 100 (complete control)
[27] = Rate 500 g/ha, scale 0 to 100, 0 is no effect, 100 is complete control
[28] = Preemergence, Rate 500 g/ha, scale 0 to 100, 0 no effect, 100 complete control
[29] = preemergence, Rate 125 g/ha, scale of 0 to 100 where 0 is no effect and 100 is complete control, 13 to 15 days
[30] = Rate 125 g/ha, scale 0 to 100, 0 no effect, 100 complete control

CCCC(C)c1ccn(C2CCN(c3cccc(OC)c3)C2=O)n1 (stereo not drawn) [Compound 99]
90: Plant response rating, Flatsedge ([22]; Rate 125 g/ha)
10: Plant response rating (0 to 100), Nightshade (Nightshade)
100: Plant response rating, Barnyardgrass [13, 28] | Plant response rating, Crabgrass [16, 28] | Plant response rating, Foxtail, Giant [17, 28] | Plant response rating, Lambsquarters [18, 28] | Plant response rating, Lambsquarters [18, 29] | Plant response rating, Pigweed [20, 28] | Flatsedge plant response rating ([22]; Rate 250 g/ha) | Flatsedge plant response rating ([22]; Rate 500 g/ha)
30: Plant response rating, Corn (corn (Zea mays) [15]; [28])
20: Plant response rating, Surinam grass [12, 28] | Plant response rating, Rice (rice (Oryza saliva); [28])
0: Plant response rating, Surinam grass [1, 24] | Plant response rating, Surinam grass [1, 25] | Plant response rating, Barnyardgrass [2, 24] | Plant response rating, Barnyardgrass [2, 25] | Plant response rating, Blackgrass [3, 26] | Plant response rating, Blackgrass [3, 27] | Plant response rating, Corn (corn (Zea mays) [4]; [24]) | Plant response rating, Corn (corn (Zea mays) [4]; [25]) | Plant response rating, Crabgrass [5, 26] | Plant response rating, Crabgrass [5, 27] | Plant response rating, Foxtail, Giant [6, 24] | Plant response rating, Foxtail, Giant [6, 25] | Plant response rating, Morningglory [8, 25] | Plant response rating, Pigweed [9, 25] | Plant response rating, Velvetleaf [10, 25] | Plant response rating, Wheat [11, 25] | Plant response rating, Wild Oat (wild oat (Avena fatua); [25]) | Plant response rating, Surinam grass [12, 29] | Plant response rating, Barnyardgrass [13, 29] | Plant response rating, Cocklebur [14, 28] | Plant response rating, Cocklebur [14, 29] | Plant response rating, Corn (corn (Zea mays) [15]; [29]) | Plant response rating, Crabgrass [16, 29] | Plant response rating, Foxtail, Giant [17, 29] | Plant response rating, Morningglory [19, 28] | Plant response rating, Morningglory [19, 29] | Plant response rating, Pigweed [20, 29] | Plant response rating, Rice (rice (Oryza saliva); [29]) | Plant response rating, Velvetleaf [21, 28] | Plant response rating, Velvetleaf [21, 29] | Plant response rating, Flatsedge ([22]; Rate 62 g/ha) | Plant response rating (0 to 100), Sunflower (Sunflower)
70: Plant response rating, Lambsquarters [7, 25]

CCCC(C)c1ccn(C2CCN(c3cccc(C(F)(F)F)c3)C2=O)n1 (stereo not drawn) [Compound 100]
100: Plant response rating, Barnyardgrass [13, 28] | Plant response rating, Crabgrass [16, 28] | Plant response rating, Lambsquarters [18, 28] | Plant response rating, Lambsquarters [18, 29] | Plant response rating, Pigweed [20, 28]
70: Plant response rating, Foxtail, Giant [17, 28] | Plant response rating, Pigweed [20, 29] | Flatsedge plant response rating ([22]; Rate 250 g/ha) | Plant response rating, Flatsedge ([22]; Rate 62 g/ha) | Plant response rating, Flatsedge ([22]; Rate 125 g/ha)
0: Plant response rating, Surinam grass [1, 24] | Plant response rating, Surinam grass [1, 25] | Plant response rating, Barnyardgrass [2, 24] | Plant response rating, Barnyardgrass [2, 25] | Plant response rating, Blackgrass [3, 26] | Plant response rating, Blackgrass [3, 27] | Plant response rating, Corn (corn (Zea mays) [4]; [24]) | Plant response rating, Corn (corn (Zea mays) [4]; [25]) | Plant response rating, Crabgrass [5, 26] | Plant response rating, Crabgrass [5, 27] | Plant response rating, Foxtail, Giant [6, 24] | Plant response rating, Foxtail, Giant [6, 25] | Plant response rating, Morningglory [8, 25] | Plant response rating, Pigweed [9, 25] | Plant response rating, Velvetleaf [10, 25] | Plant response rating, Wheat [11, 25] | Plant response rating, Wild Oat (wild oat (Avena fatua); [25]) | Plant response rating, Surinam grass [12, 29] | Plant response rating, Barnyardgrass [13, 29] | Plant response rating, Cocklebur [14, 28] | Plant response rating, Cocklebur [14, 29] | Plant response rating, Corn (corn (Zea mays) [15]; [29]) | Plant response rating, Crabgrass [16, 29] | Plant response rating, Foxtail, Giant [17, 29] | Plant response rating, Morningglory [19, 28] | Plant response rating, Morningglory [19, 29] | Plant response rating, Rice (rice (Oryza saliva); [29]) | Plant response rating, Velvetleaf [21, 28] | Plant response rating, Velvetleaf [21, 29] | Plant response rating (0 to 100), Nightshade (Nightshade) | Plant response rating (0 to 100), Sunflower (Sunflower)
20: Plant response rating, Surinam grass [12, 28] | Plant response rating, Corn (corn (Zea mays) [15]; [28]) | Plant response rating, Rice (rice (Oryza saliva); [28])
80: Plant response rating, Lambsquarters [7, 25]
90: Flatsedge plant response rating ([22]; Rate 500 g/ha)

Cc1ccc(N2CCC(n3ccc(C(C)(C)C)n3)C2=O)cc1I (stereo not drawn) [Compound 122]
70: Plant response rating, Surinam grass [12, 28]
0: Plant response rating, Surinam grass [1, 30] | Plant response rating, Surinam grass [1, 25] | Plant response rating, Barnyardgrass [2, 30] | Plant response rating, Barnyardgrass [2, 25] | Plant response rating, Corn (corn (Zea mays) [4]; [30]) | Plant response rating, Corn (corn (Zea mays) [4]; [25]) | Plant response rating, Foxtail, Giant [6, 30] | Plant response rating, Velvetleaf [10, 30] | Plant response rating, Wheat [11, 30] | Plant response rating, Wild Oat (wild oat (Avena fatua); [30]) | Plant response rating, Barnyardgrass [13, 29] | Plant response rating, Cocklebur [14, 28] | Plant response rating, Cocklebur [14, 29] | Plant response rating, Corn (corn (Zea mays) [15]; [28]) | Plant response rating, Corn (corn (Zea mays) [15]; [29]) | Plant response rating, Morningglory [19, 28] | Plant response rating, Morningglory [19, 29] | Plant response rating, Rice (rice (Oryza saliva); [28]) | Plant response rating, Rice (rice (Oryza saliva); [29]) | Plant response rating, Velvetleaf [21, 28] | Plant response rating, Velvetleaf [21, 29] | Plant response rating, Flatsedge ([22]; Rate 62 g/ha)
90: Plant response rating, Cocklebur [23, 25] | Plant response rating, Lambsquarters [7, 30] | Plant response rating (0 to 100), Nightshade (Nightshade)
30: Plant response rating, Cocklebur [23, 30] | Plant response rating, Pigweed [9, 30] | Plant response rating, Foxtail, Giant [17, 28] | Plant response rating (0 to 100), Sunflower (Sunflower)
80: Flatsedge plant response rating ([22]; Rate 250 g/ha) | Plant response rating, Flatsedge ([22]; Rate 125 g/ha)
20: Plant response rating, Morningglory [8, 30] | Plant response rating, Foxtail, Giant [17, 29]
50: Plant response rating, Surinam grass [12, 29]
100: Plant response rating, Barnyardgrass [13, 28] | Plant response rating, Crabgrass [16, 28] | Plant response rating, Crabgrass [16, 29] | Plant response rating, Lambsquarters [18, 28] | Plant response rating, Lambsquarters [18, 29] | Plant response rating, Pigweed [20, 28] | Plant response rating, Pigweed [20, 29] | Flatsedge plant response rating ([22]; Rate 500 g/ha)
